Data: article PMC9854712 (Antioxidants, 2023)

Experiments:
[1] = tested on: HTB-54, DU-145, HT-29 and MDA-MB-231 cancer cell lines; assay: cells; type: cell-based; details: against the panel of the four cancer cell lines
Experimental: (§1) The cell lines were obtained from the American Type Culture Collection (ATCC). Five tumor cell lines (MDA-MB-231, MCF-7, HCT116, HTB-54, and DU-145) and two non-tumorigenic cells (184B5 and BEAS-2B) were grown in RPMI 1640 medium (Gibco), and the HT-29 tumor cell line was grown in McCoy’s medium. Both mediums were supplemented with 10% fetal bovine serum (FBS; Gibco) and 1% antibiotics (10.00 units/mL penicillin and 10.00 μg/mL streptomycin; Gibco). Cells were preserved in tissue culture flasks at 37 °C and 5% CO2. The culture medium was replaced every three days.
(§2) The effect of each compound on cell viability was tested using the MTT assay. […] Selected compounds were then tested at seven different concentrations (0.5–100 μM) in MCF-7, HCT116, HT-29, HTB-54, 184B5 and BEAS-2B cells. Cells were seeded at 10^4 per well onto flat-bottomed 96-well culture plates. They were treated with either DMSO or increasing concentration of the corresponding compound for 48 h. Then, they were incubated with 20 μL of 3-(4,5-dimethylthiazol-2-yl)-2,5-diphenyltetrazolium bromide (MTT) (2 mg /mL stock; Aldrich) for 2,5 h and analyzed for their ability to generate a purple formazan dye. These formazan crystals were dissolved in 50 μL of DMSO. The absorbance was measured at a wavelength of 550 nm and the ratio of viable cells was calculated.
As a first approach, all the compounds were tested in vitro against lung (HTB-54), prostatic (DU-145), colon (HT-29), and triple-negative breast (MDA-MB-231) cancer cell lines at two concentrations (50 and 10 µM) for 48 h. Then, the MTT colorimetric assay was used to evaluate cell proliferation after the treatment. The data are expressed as the percentage of cell growth ± SD in at least three independent experiments performed in quadruplicates (Table S1).

[2] = tested on: HCT116 cells; assay: MTT cell viability assay, HCT116; type: cell-based; details: Homo sapiens, HCT-116, 48 h
Experimental: as §1, §2
(§3) Results are expressed as cell viability % at 10 μM. Selectivity index were calculated as the ratio of the IC50 values determined for the non-malignant and the tumor cells in breast (IC50 (184B5)/IC50 (MCF-7)) and lung (IC50 (BEAS-2B)/IC50 (HTB-54)) cell lines. Data were obtained from at least three independent experiments performed in triplicates.

[3] = tested on: panel of 60 human tumor cell lines; assay: NCI-60 analysis (One-Dose and Five-Dose), whole panel; type: cell-based; details: 48 h; for GI50: Homo sapiens, Five-Dose assay, 60 cell lines; for mean growth percent: One Dose (10 µM), 60 cancer cell lines
Experimental: (§4) Compounds 14a and 17a were submitted to the Developmental Therapeutics Program (DTP) of National Cancer Institute (NCI). Cytotoxicity activity was evaluated by performing One-Dose screening (10^−5 M) against a panel of 60 human tumor cell lines. […] Cells grew in the RPMI 1640 medium containing 5% fetal bovine serum and 2 mM L-glutamine and were inoculated into 96-well microtiter plates in 100 μL at plating densities ranging from 5.000 to 40.000 cells/well. The microtiter plates inoculated with cells were incubated at 37 °C, in 5% humidified CO2 for 24 h prior to addition of experimental drugs. Then, experimental drugs were added, and the microtiter plates were incubated for 48 h. The protocol is available on https://dtp.cancer.gov/discovery_development/nci-60/methodology.htm accessed on 31 December 2022.

[4] = tested on: OVCAR-3 (ovarian); assay: NCI-60 Five-Dose assay, OVCAR-3; type: cell-based; details: Homo sapiens, 48 h
Experimental: as §4

[5] = tested on: 184B5 cells; assay: MTT cell viability assay, 184B5 (non-tumorigenic); type: cell-based; details: Homo sapiens, 48 h, nonmalignant mammary gland
Experimental: as §1, §2, §3

[6] = tested on: OVCAR-8 (ovarian); assay: NCI-60 Five-Dose assay, OVCAR-8; type: cell-based; details: Homo sapiens, 48 h
Experimental: as §4

[7] = tested on: HTB-54 cells; assay: MTT cell viability assay, HTB-54; type: cell-based; details: for viability at 10 µM / IC50: HTB-54, 48 h, MTT; for viability at 10 µM: read-out: Cell growth % at 10 µM, HTB-54; for SI (lung): IC50 (BEAS-2B)/IC50 (HTB-54)
Experimental: as §1, §2, §3

[8] = in vitro
Experimental: Franz diffusion cells (Microette 8910130, Hanson Research) were employed to perform this assay. The compounds were dissolved in DMSO at 5 mg/mL and diluted to 500 µg/mL with phosphate-buffered saline (PBS)/EtOH (7:3) to make a stock solution. A total of 10 µL of porcine brain lipid (PBL) diluted in dodecane solution (20 mg/mL) was spread onto a PVDF membrane that was placed between the donor and acceptor compartments, forming a sandwich structure. Then, 4.5 mL of PBS/EtOH (7:3) was added to the acceptor compartment and 700 µL of the stock solution was added to the donor cell. […] The concentration of the compound was calculated from the standard curve and expressed as permeability (Pe) by the following formula [84]:Permeability (cm/s): Pe = {−ln [1 − CA(t)/Ceq]}/[A ∗ (1/VD + 1/VA) ∗ t]
A = filter area ([…]), VD = donor cell volume (0.7 mL), VA = acceptor cell volume (4.5 mL), t = incubation time, CA (t) = compound concentration in acceptor cell at time t, CD (t) = compound concentration in donor cell at time t, and Ceq = [CD(t) ∗ VD + […] ∗ VA]/(VD + VA).
Every sample was analyzed at least in duplicate and the data were reported as mean ± SD.

[9] = tested on: HT-29 cells; assay: MTT cell viability assay, HT-29; type: cell-based; details: Homo sapiens; for viability at 10 µM: HT-29, 10 µM, 48 h, read-out: Cell growth % at 10 µM, HT-29; for IC50: HT-29, 48 h
Experimental: as §1, §2, §3

[10] = tested on: MDA-MB-231 cells; assay: MTT cell viability assay, MDA-MB-231; type: cell-based; details: Homo sapiens, MDA-MB-231, 48 h, read-out: Cell growth % at 10 µM, MDA-MB-231
Experimental: as §1, §2, §3

| SMILES | viability at 10 µM [1] | IC50 [2] | GI50 [3] | mean growth percent [3] | GI50 [4] | IC50 [5] | GI50 [6] | viability at 10 µM [7] | IC50 [7] | SI (lung) [7] | Papp at 20 h, 500 µg/mL ([8]; PAMPA) | fold higher Pe compared to galantamine ([8]; PAMPA-BBB) | Pe ± SD ([8]; PAMPA-BBB, porcine brain lipid, 20 h, 25 °C) | BBB Permeation (Experimental) ([8]; class from PAMPA-BBB Pe) | viability at 10 µM [9] | IC50 [9] | viability at 10 µM [10] |
| --- | --- | --- | --- | --- | --- | --- | --- | --- | --- | --- | --- | --- | --- | --- | --- | --- | --- |
| C=CC[Se]C(=O)c1ccccc1OC(C)=O [Compound 14a, 2-(allylselanylcarbonyl)phenylacetate] | < 55% | 5.9 ± 0.8 µM | 1.79 µM | −5.89 | 1.9 µM | 10.2 ± 0.1 µM | 1.5 µM | 34.2 ± 6.2% | 9.9 ± 1.1 µM | 0.7 | 36.9 ± 0.1 ×10⁻⁶ cm/s | 3 fold | 36.92 ×10⁻⁶ cm/s | High (High BBB permeation predicted; Pe (10^−6 cm s^−1) > 4.0) | 53.9 ± 5.3% | 6.4 ± 1 µM | 38.8 ± 3.6% |
| C=CC[Se]C(=O)Cc1c(C)n(C(=O)c2ccc(Cl)cc2)c2ccc(OC)cc12 [Compound 17a, Se-allyl 2-[1-(4-chlorobenzoyl)-5-methoxy-2-methyl-1H-indol-3-yl]ethaneselenoate] | < 55% | 7 ± 0.9 µM | 1.74 µM | −26.70 | 1.8 µM | 13.3 ± 3.9 µM | 1.7 µM | 21.9 ± 6.5% | 7.9 ± 1.9 µM | 0.8 | – | – | – | – | 38.7 ± 6% | 5.9 ± 0.8 µM | 26.5 ± 5.6% |
